pKi: −log10 of the molar value. Where two headings read alike, the source gives them in different places.
Legend:
[1] = biological target: trypsin; conditions: background; cited from earlier work
[2] = cited from earlier work
[3] = biological target: T1, plasmin (Homo sapiens (Human), UniProt P00747); conditions: background literature; read-out: Ki / inhibition constant for plasmin; cited from earlier work
[4] = biological target: human activated protein C (Homo sapiens (Human), UniProt P04070); assay: Inhibition of human activated protein C; type: biochemical; conditions: Pefachrome PCa substrate; read-out: h aPC Ki
Protocol: (§1) The inhibitory effect for the individual enzymes was determined in analogy to a previously disclosed method (Stürzebecher et al., J. Med. Chem., 40, 3091-3099 (1997)).
(§2) 200 μl of TBS (0.05 M trishydroxymethylaminomethane; 0.154 M NaCl, 2% ethanol, pH 8.0)
(§3) 2 μL of a test compound solution in 50% v/v DMSO/water
(§4) For zero order kinetics, the reaction was stopped after 20 min by adding 15 μl of acetic acid (80% v/v), and the absorption at 405 nm was determined using a Microplate Reader (Multiscan Ascent™, from Thermo). In the case of pseudo-first order kinetics, the reaction rates in the equilibrium state were determined by continuously recording the change in absorbance at 405 nm. The Ki values were calculated by parameter fitting in accordance with the rate equation for competitive inhibition using the GraFit software, version 4. The Ki values are the average of at least three determinations.

[5] = biological target: human activated C1r complement component (Homo sapiens (Human), UniProt P00736); assay: Inhibition of human C1r; type: biochemical; conditions: S2314 substrate; read-out: h C1r Ki
Protocol: as §1, §2, §3, §4

[6] = biological target: T1, plasmin; assay: Determination of inhibition constants for human plasmin (chromogenic substrate); type: biochemical; conditions: 25° C., Chromozym PL substrate; read-out: h plasmin Ki
Protocol: (§5) Determination of the Inhibition Constants for Human Plasmin (h Plasmin) and Human Plasma Kallikrein (h PK)
as §1, §2
(§6) 25 μl of substrate (4 mM, 2 mM and 1 mM tosyl-Gly-Pro-Lys-pNA=Chromozym PL from LOXO for plasmin and 3 mM, 1.5 mM and 1 mM H-D-Pro-Phe-Arg-pNA=S2302 from Chromogenix for PK, dissolved in H2O)
as §3
(§7) 50 μl of enzyme solution (plasmin from Calbiochem: 1.7 mU/ml in 0.154 M NaCl+0.1% BSA m/v; plasma kallikrein from Enzyme Research Lab.: 62 ng/ml in 0.154 M NaCl+0.1% BSA m/v)
as §4
Target sequence in this assay (P00747 581-810): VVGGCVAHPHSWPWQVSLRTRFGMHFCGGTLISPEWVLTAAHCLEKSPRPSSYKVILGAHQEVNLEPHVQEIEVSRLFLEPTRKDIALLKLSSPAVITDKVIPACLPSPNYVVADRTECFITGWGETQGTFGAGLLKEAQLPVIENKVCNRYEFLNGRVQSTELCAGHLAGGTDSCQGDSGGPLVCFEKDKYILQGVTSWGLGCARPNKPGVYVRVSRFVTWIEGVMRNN
Target sequence in this assay (P00747 97-580 partner): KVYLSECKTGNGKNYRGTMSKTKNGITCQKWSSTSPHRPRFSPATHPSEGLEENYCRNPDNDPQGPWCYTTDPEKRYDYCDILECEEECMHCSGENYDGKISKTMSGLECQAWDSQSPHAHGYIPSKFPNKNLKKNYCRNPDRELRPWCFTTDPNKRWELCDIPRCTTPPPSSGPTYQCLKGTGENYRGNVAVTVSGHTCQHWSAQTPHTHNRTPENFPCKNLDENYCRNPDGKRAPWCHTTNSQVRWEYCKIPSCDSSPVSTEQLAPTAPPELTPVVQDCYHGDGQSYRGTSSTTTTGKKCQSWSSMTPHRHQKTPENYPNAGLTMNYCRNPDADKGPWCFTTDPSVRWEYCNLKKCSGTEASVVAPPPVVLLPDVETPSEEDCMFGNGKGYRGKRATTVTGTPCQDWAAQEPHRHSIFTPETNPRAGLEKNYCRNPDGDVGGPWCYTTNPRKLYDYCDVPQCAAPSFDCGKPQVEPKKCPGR

[7] = biological target: human alpha-FXIIa (Homo sapiens (Human), UniProt P00748); assay: Inhibition of human alpha-Factor XIIa; type: biochemical; conditions: CHA-Gly-Arg-pNA substrate; read-out: h FXIIa Ki
Protocol: as §1, §2, §3, §4

[8] = biological target: human Factor Xa (Homo sapiens (Human), UniProt P00742); assay: Inhibition of human Factor Xa; type: biochemical; conditions: Pefachrome FXa substrate; read-out: h FXa Ki
Protocol: The inhibitory effect for the individual enzymes was determined in analogy to a previously disclosed method (Stürzebecher et al., J. Med. […] In the case of pseudo-first order kinetics, the reaction rates in the equilibrium state were determined by continuously recording the change in absorbance at 405 nm. […] The Ki values are the average of at least three determinations. Human Factor Xa (h FXa): […]

[9] = biological target: human alpha-thrombin (Homo sapiens (Human), UniProt P00734); assay: Inhibition of human Factor IIa; type: biochemical; conditions: Pefachrome tPA substrate; read-out: h FIIa Ki
Protocol: as §1, §2, §3, §4

[10] = biological target: plasma kallikrein (Homo sapiens (Human), UniProt P03952); assay: Determination of inhibition constants for human plasma kallikrein (chromogenic substrate); type: biochemical; conditions: 25° C., S2302 substrate; read-out: h PK Ki
Protocol: as §5, §1, §2, §6, §3, §7, §4

[11] = biological target: human urinary kallikrein (Homo sapiens (Human), UniProt P06870); assay: Inhibition of human urinary kallikrein; type: biochemical; conditions: S-2266 substrate; read-out: h uKK Ki
Protocol: as §1, §2, §3, §4

[12] = biological target: human activated C1s complement component (Homo sapiens (Human), UniProt P09871); assay: Inhibition of human C1s; type: biochemical; conditions: S2314 substrate; read-out: h C1s Ki
Protocol: as §1, §2, §3, §4
Subcomponent “s” of Human Complement Component 1 (h C1s): Inhibition of human C1s was determined by the method described in [0092]-[0098] using native human activated C1s complement component from Calbiochem at 29 nM and Val-Ser-Arg-pNA (S2314) at 8 mM, 6 mM, and 4 mM as substrate; results are reported as Ki values (nanomolar).

[13] = biological target: human t-PA (Homo sapiens (Human), UniProt P00750); assay: Inhibition of human tissue-type plasminogen activator; type: biochemical; conditions: Pefachrome tPA substrate; read-out: h t-PA Ki
Protocol: as §1, §2, §3, §4

[14] = biological target: human Factor XIa (Homo sapiens (Human), UniProt P03951); assay: Inhibition of human Factor XIa; type: biochemical; conditions: Pefachrome PCa substrate; read-out: h FXIa Ki
Protocol: as §1, §2, §3, §4

human activated protein C, sequence (P04070 212-450): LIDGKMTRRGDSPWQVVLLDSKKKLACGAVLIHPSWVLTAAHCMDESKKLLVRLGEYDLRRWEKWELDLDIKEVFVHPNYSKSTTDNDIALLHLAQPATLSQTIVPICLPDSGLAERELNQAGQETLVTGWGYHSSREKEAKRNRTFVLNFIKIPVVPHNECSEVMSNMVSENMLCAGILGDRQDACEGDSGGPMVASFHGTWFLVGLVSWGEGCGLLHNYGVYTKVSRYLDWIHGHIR
human activated protein C, sequence (P04070 43-197 partner): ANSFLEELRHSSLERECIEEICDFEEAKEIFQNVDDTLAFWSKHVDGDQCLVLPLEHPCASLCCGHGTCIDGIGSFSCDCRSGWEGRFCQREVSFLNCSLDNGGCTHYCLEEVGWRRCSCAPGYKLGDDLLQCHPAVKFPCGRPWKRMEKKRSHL
human activated C1r complement component, sequence (P00736 464-705): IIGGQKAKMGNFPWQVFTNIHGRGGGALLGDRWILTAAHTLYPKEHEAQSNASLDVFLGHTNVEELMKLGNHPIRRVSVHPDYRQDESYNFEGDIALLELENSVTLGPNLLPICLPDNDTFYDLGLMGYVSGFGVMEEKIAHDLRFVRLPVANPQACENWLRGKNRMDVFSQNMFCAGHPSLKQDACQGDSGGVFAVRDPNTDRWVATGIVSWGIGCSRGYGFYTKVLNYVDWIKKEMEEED
human activated C1r complement component, sequence (P00736 18-463 partner): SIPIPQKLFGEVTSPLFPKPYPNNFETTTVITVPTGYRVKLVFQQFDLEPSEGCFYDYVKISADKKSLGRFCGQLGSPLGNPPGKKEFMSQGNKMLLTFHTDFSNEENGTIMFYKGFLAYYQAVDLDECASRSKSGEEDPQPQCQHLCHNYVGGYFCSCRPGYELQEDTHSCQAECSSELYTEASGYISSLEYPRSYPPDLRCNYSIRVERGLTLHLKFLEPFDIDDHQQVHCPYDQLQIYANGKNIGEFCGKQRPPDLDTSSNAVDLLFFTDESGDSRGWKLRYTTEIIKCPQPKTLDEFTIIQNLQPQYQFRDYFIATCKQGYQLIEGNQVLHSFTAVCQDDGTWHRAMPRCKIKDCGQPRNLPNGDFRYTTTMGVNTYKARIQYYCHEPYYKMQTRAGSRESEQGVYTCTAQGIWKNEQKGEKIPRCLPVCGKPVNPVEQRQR
human Factor XIa, sequence (P03951 388-625): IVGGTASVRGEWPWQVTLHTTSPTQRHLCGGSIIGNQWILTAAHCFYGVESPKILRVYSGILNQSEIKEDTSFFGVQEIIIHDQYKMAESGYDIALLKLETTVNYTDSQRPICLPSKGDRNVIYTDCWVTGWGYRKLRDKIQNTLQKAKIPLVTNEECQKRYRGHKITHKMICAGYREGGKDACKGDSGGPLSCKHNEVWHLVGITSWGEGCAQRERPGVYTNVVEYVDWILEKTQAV
human Factor XIa, sequence (P03951 19-387 partner): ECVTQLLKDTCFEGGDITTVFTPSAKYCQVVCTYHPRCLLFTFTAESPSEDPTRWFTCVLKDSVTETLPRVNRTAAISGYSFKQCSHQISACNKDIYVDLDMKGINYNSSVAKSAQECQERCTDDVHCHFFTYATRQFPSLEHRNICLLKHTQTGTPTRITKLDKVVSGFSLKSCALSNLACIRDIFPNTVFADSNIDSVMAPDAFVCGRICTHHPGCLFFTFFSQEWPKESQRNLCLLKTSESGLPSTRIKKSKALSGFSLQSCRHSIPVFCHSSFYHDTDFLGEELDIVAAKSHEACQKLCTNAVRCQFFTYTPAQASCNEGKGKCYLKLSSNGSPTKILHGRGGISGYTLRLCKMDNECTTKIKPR
human t-PA, sequence (P00750 36-562): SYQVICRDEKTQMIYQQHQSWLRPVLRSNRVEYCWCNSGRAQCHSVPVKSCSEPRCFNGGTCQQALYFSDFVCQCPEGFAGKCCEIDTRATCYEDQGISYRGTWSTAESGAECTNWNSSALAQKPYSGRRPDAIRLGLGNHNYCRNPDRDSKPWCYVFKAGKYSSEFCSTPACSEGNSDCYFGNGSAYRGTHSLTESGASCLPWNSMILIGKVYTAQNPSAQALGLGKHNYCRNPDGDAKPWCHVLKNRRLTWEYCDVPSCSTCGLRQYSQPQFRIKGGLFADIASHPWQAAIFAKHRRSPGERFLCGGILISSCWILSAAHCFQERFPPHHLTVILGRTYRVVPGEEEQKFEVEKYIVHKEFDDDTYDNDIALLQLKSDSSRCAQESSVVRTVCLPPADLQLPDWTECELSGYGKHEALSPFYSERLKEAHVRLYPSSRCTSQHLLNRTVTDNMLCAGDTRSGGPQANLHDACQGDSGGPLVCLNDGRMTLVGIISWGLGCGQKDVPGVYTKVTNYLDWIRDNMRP
human Factor Xa, sequence (P00742 235-488): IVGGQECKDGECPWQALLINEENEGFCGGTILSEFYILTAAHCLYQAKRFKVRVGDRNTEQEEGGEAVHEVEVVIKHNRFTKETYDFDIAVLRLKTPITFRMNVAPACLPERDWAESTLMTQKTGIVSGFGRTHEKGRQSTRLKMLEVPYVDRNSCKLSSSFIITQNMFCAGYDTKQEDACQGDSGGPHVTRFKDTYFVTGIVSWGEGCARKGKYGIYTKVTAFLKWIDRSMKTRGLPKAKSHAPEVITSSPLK
human Factor Xa, sequence (P00742 41-179 partner): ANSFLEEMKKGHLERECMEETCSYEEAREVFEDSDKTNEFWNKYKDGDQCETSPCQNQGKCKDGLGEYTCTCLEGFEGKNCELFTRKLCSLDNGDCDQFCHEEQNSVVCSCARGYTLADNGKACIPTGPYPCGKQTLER
human alpha-FXIIa, sequence (P00748 373-615): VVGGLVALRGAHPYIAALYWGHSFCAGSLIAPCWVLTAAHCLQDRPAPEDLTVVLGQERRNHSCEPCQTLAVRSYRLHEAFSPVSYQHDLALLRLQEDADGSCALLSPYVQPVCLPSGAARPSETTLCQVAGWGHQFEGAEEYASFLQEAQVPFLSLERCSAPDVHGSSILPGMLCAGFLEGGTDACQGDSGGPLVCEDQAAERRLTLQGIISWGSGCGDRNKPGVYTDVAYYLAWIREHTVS
human alpha-FXIIa, sequence (P00748 20-372 partner): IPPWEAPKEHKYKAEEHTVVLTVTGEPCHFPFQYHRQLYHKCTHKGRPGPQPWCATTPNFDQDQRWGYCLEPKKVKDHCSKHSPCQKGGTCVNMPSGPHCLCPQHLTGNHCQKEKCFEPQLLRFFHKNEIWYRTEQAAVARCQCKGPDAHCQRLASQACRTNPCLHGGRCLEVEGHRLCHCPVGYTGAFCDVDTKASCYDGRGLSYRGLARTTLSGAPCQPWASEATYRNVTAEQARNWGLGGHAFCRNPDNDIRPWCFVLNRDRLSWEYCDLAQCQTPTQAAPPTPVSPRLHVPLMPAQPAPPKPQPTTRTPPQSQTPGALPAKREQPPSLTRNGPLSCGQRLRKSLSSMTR
human urinary kallikrein, sequence (P06870 25-262): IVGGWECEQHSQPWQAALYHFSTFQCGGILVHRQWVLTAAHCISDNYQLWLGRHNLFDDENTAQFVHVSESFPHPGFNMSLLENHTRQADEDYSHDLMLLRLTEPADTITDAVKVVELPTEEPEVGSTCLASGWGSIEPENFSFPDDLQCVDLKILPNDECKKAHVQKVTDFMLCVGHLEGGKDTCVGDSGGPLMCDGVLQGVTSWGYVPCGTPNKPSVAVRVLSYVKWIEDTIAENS
plasma kallikrein, sequence (P03952 391-638): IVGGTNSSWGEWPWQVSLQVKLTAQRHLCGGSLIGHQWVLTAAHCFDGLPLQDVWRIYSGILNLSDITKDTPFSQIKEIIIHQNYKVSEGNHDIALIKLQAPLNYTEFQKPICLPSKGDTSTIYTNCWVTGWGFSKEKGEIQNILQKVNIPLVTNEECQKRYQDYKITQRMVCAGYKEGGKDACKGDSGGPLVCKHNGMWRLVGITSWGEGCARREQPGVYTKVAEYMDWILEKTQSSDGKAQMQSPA
plasma kallikrein, sequence (P03952 20-390 partner): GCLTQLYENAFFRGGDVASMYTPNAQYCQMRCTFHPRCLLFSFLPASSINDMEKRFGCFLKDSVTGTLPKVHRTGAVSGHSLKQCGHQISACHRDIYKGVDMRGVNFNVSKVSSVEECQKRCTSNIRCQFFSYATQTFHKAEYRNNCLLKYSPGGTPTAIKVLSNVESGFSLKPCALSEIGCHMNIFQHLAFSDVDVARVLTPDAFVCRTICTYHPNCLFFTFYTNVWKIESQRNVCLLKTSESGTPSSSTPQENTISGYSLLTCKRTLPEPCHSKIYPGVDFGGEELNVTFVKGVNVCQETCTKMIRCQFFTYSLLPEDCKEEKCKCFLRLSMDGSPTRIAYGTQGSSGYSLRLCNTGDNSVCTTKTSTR

pKi [4] | pKi [5] | pKi [6] | pKi [7] | pKi [8] | pKi [9] | pKi [10] | pKi [11] | pKi [12] | pKi [13] | pKi [14] | Compound | pKi [1] | risk of anaphylactic shock ([2]; first administration) | risk of anaphylactic shock ([2]; repeated administration within 200 days) | pKi [3]
 |  |  |  |  |  |  |  |  |  |  | aprotinin | 10.00 | < 0.1% | 4-5% | 
 |  |  |  |  |  |  |  |  |  |  | N=C(N)c1ccc(CNC(=O)[C@@H]2CCN2C(=O)[C@H](NCC(=O)O)C2CCCCC2)cc1 [melagatran] |  |  |  | 6.15
5.96 | < 4.82 | 9.22 | 6.10 | 5.66 | 5.26 | 8.70 | < 3.70 | < 5.00 | 5.21 | 6.06 | CCCC(=O)N1CCC(CC[C@@H](NS(=O)(=O)Cc2ccccc2)C(=O)N[C@@H](CCC2CCNCC2)C(=O)NCc2ccc(C(=N)N)cc2)CC1 |  |  |  | 
5.92 | < 4.40 | 8.74 | 6.28 | 5.72 | 5.10 | 8.30 | < 4.70 | < 4.70 | 5.32 | 5.85 | CC(=O)N1CCC(CC[C@@H](NS(=O)(=O)Cc2ccccc2)C(=O)N[C@@H](CCC2CCNCC2)C(=O)NCc2ccc(C(=N)N)cc2)CC1 |  |  |  | 
5.96 | < 4.70 | 9.00 | 6.26 | 5.77 | 5.32 | 8.70 | < 3.70 | < 4.70 | 5.28 | 5.89 | CNC(=O)N1CCC(CC[C@@H](NS(=O)(=O)Cc2ccccc2)C(=O)N[C@@H](CCC2CCNCC2)C(=O)NCc2ccc(C(=N)N)cc2)CC1 |  |  |  | 

Compound | pKi [4] | pKi [5] | pKi [6] | pKi [7] | pKi [8] | pKi [9] | pKi [10] | pKi [11] | pKi [12] | pKi [13] | pKi [14] | pKi [1] | risk of anaphylactic shock ([2]; first administration) | risk of anaphylactic shock ([2]; repeated administration within 200 days) | pKi [3]
N=C(N)c1ccc(CNC(=O)[C@H](CCC2CCNCC2)NC(=O)[C@@H](CCCc2cc[n+]([O-])cc2)NS(=O)(=O)Cc2ccccc2)cc1 [drawing 123] | 6.07 | < 4.52 | 9.00 | 6.06 | 6.40 | 5.31 | 8.40 | < 3.70 | 5.02 | 5.62 | 5.85 |  |  |  | 
